Test results published in patent US10026660B2, “Method of etching the back of a wafer to expose TSVs” (priority 2014, dated 2018).

System: rat
Experiment: Rat dermal exposure toxicity (LD50)
Settings: rat dermal exposure (skin contact)
Text: LD50 is the dosage for 50% or more of test rats to […] after skin contact with the test chemicals in a given time. Generally, the higher the LD50, the less toxic the chemical.

Structure (SMILES): C[N+](C)(C)C.[OH-] [TMAH, Tetramethylammonium hydroxide]
- LD50: 157 mg/kg
